From EP0554004A2, “Cephem compounds and antibacterial agents” (KATAYAMA SEIYAKUSYO CO. Ltd., priority 1992, dated 1993)
In brackets after ≈: the same amount, converted by molar mass.

What was measured:
Format in all cases: cell-based
[1] = test system: Bacillus subtilis ATCC 6633; experiment: MIC against standard strains (Test Example 1); settings: ATCC6633, Muller-Hinton agar, 37°C overnight
Procedure: (§1) By using each test strain cultured overnight at 37°C in a Muller-Hinton broth, there was prepared a bacterial solution with a bacterial cell population of 1 x 10^6 CFU/mi of the same bouillon. The bacterial solution was inoculated into the Muller-Hinton agar media each containing respectively one test agent and, after overnight incubation at 37°C, the minimum concentration that inhibited growth of the bacteria was determined and shown as MIC also in Table 1.
(§2) Staphylococcus aureus 167 and Staphylococcus aureus 195 used in the test were MRSA. CTM (cefotiam) and FMOX (flomoxef) were used as control agents.

[2] = test system: Citrobacter freundii ATCC 8090; experiment: MIC against standard strains (Test Example 1); settings: ATCC8090, Muller-Hinton agar, 37°C overnight
Procedure: as §1, §2

[3] = test system: Enterobacter cloacae ATCC 13407; experiment: MIC against standard strains (Test Example 1); settings: ATCC13407, Muller-Hinton agar, 37°C overnight
Procedure: as §1, §2

[4] = test system: Escherichia coli CSH2 (RE45); experiment: MIC against standard strains (Test Example 1)
Procedure: as §1, §2

[5] = test system: Escherichia coli CSH2 (RK1); experiment: MIC against standard strains (Test Example 1)
Procedure: as §1, §2

[6] = test system: Escherichia coli NIHJ JC-2; experiment: MIC against standard strains (Test Example 1); settings: NIHJJC2, Muller-Hinton agar, 37°C overnight
Procedure: as §1, §2

[7] = test system: Klebsiella pneumoniae IFO 3317; experiment: MIC against standard strains (Test Example 1); settings: IFO3317, Muller-Hinton agar, 37°C overnight
Procedure: as §1, §2

[8] = test system: Klebsiella pneumoniae No. 42; experiment: MIC against standard strains (Test Example 1); settings: Muller-Hinton agar, 37°C overnight
Procedure: as §1, §2

[9] = test system: Micrococcus luteus ATCC 9341; experiment: MIC against standard strains (Test Example 1); settings: ATCC9341, Muller-Hinton agar, 37°C overnight
Procedure: as §1, §2

[10] = test system: Morganella morganii IFO 3848; experiment: MIC against standard strains (Test Example 1); settings: IFO3848, Muller-Hinton agar, 37°C overnight
Procedure: as §1, §2

[11] = test system: Proteus mirabilis IFO 3849; experiment: MIC against standard strains (Test Example 1); settings: IFO3849, Muller-Hinton agar, 37°C overnight
Procedure: as §1, §2

[12] = test system: Proteus vulgalis OX-19; experiment: MIC against standard strains (Test Example 1); settings: Muller-Hinton agar, 37°C overnight
Procedure: as §1, §2

[13] = test system: Pseudomonas aeruginosa NCTC 10490; experiment: MIC against standard strains (Test Example 1); settings: NCTC10490, Muller-Hinton agar, 37°C overnight
Procedure: as §1, §2

[14] = test system: Psuedomonas aeruginosa IFO 3445; experiment: MIC against standard strains (Test Example 1); settings: Muller-Hinton agar, 37°C overnight
Procedure: as §1, §2

[15] = test system: Serratia marcescens IAM 1184; experiment: MIC against standard strains (Test Example 1); settings: IAM1184, Muller-Hinton agar, 37°C overnight
Procedure: as §1, §2

[16] = test system: Staphylococcus aureus 167; experiment: MIC against standard strains (Test Example 1); settings: Staphylococcus aureus 167 (MRSA); Muller-Hinton agar, 37°C overnight
Procedure: as §1, §2

[17] = test system: Staphylococcus aureus 195; experiment: MIC against standard strains (Test Example 1); settings: Staphylococcus aureus 195 (MRSA); Muller-Hinton agar, 37°C overnight
Procedure: as §1, §2

[18] = test system: Staphylococcus aureus 209P JC-1; experiment: MIC against standard strains (Test Example 1); settings: Muller-Hinton agar, 37°C overnight
Procedure: as §1, §2

[19] = test system: Staphylococcus aureus Smith; experiment: MIC against standard strains (Test Example 1); settings: Muller-Hinton agar, 37°C overnight
Procedure: as §1, §2

[20] = test system: Staphylococcus epidermidis IAM 1296; experiment: MIC against standard strains (Test Example 1); settings: IAM1296, Muller-Hinton agar, 37°C overnight
Procedure: as §1, §2

[21] = test system: A. calcoaceticos T59; experiment: MIC against standard strains (Test Example 3); settings: A. calcoaceticos T59 (Test Example 3); read-out: MIC
Procedure, shortened: (§3)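 Agar dilution MIC; Mueller-Hinton agar; inoculum 1 x 10^6 CFU/ml from overnight 37°C MH broth culture; read after overnight incubation at 37°C; MIC = lowest concentration with no growth.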

[22] = test system: A. faecalis ATCC3750; experiment: MIC against standard strains (Test Example 3); settings: Alcaligenes faecalis; A. faecalis ATCC3750 (Test Example 3); read-out: MIC
Procedure, shortened: as §3

[23] = test system: B. subtilis ATCC6633; experiment: MIC against standard strains (Test Example 3); settings: Bacillus subtilis; B. subtilis ATCC6633 (Test Example 3); read-out: MIC
Procedure, shortened: as §3

[24] = test system: C. freundii ATCC8090; experiment: MIC against standard strains (Test Example 3); settings: Citrobacter freundii; C. freundii ATCC8090 (Test Example 3); read-out: MIC
Procedure, shortened: as §3

[25] = test system: E. cloacae ATCC13407; experiment: MIC against standard strains (Test Example 3); settings: Enterobacter cloacae; E. cloacae ATCC13407 (Test Example 3); read-out: MIC
Procedure, shortened: as §3

[26] = test system: E. coli CSH2 (RE45); experiment: MIC against standard strains (Test Example 3); settings: Escherichia coli
Procedure, shortened: (§4)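 Each agent was incorporated into Mueller-Hinton agar, then seeded with 1 x 10^6 CFU/ml of bacteria from overnight broth culture. Plates stood overnight at 37°C before the lowest growth-inhibiting concentration was recorded as MIC.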

[27] = test system: E. coli CSH2 (RK1); experiment: MIC against standard strains (Test Example 3); settings: Escherichia coli
Procedure, shortened: as §4

[28] = test system: E. coli NIHJ JC-2; experiment: MIC against standard strains (Test Example 3); settings: Escherichia coli, NIHJJC2; E. coli NIHJ JC-2 (Test Example 3); read-out: MIC
Procedure, shortened: as §3

[29] = test system: K. pneumoniae IFO3317; experiment: MIC against standard strains (Test Example 3); settings: Klebsiella pneumoniae; K. pneumoniae IFO3317 (Test Example 3); read-out: MIC
Procedure, shortened: as §3

[30] = test system: K. pneumoniae No. 42; experiment: MIC against standard strains (Test Example 3); settings: Klebsiella pneumoniae; K. pneumoniae No. 42 (Test Example 3); read-out: MIC
Procedure, shortened: as §3

[31] = test system: M. Morganii IFO3848; experiment: MIC against standard strains (Test Example 3); settings: Morganella morganii; M. Morganii IFO3848 (Test Example 3); read-out: MIC
Procedure, shortened: as §3

[32] = test system: M. luteus ATCC 9341; experiment: MIC against standard strains (Test Example 3); settings: Micrococcus luteus, ATCC9341; M. luteus ATCC 9341 (Test Example 3); read-out: MIC
Procedure, shortened: as §3

[33] = test system: P. aeruginosa NCTC10490; experiment: MIC against standard strains (Test Example 3); settings: Pseudomonas aeruginosa; P. aeruginosa NCTC10490 (Test Example 3); read-out: MIC
Procedure, shortened: as §3

[34] = test system: P. mirabilis IFO3849; experiment: MIC against standard strains (Test Example 3); settings: Proteus mirabilis; P. mirabilis IFO3849 (Test Example 3); read-out: MIC
Procedure, shortened: as §3

[35] = test system: P. vulugaris OX-19; experiment: MIC against standard strains (Test Example 3); settings: P. vulugaris OX-19 (Test Example 3); read-out: MIC
Procedure, shortened: as §3

[36] = test system: S. aureus 167; experiment: MIC against standard strains (Test Example 3); settings: Staphylococcus aureus; S. aureus 167 (MRSA) (Test Example 3); read-out: MIC
Procedure, shortened: as §3

[37] = test system: S. aureus 195; experiment: MIC against standard strains (Test Example 3); settings: Staphylococcus aureus; S. aureus 195 (MRSA) (Test Example 3); read-out: MIC
Procedure, shortened: as §3

[38] = test system: S. aureus 209p JC-1; experiment: MIC against standard strains (Test Example 3); settings: Staphylococcus aureus; S. aureus 209p JC-1 (Test Example 3); read-out: MIC
Procedure, shortened: as §3

[39] = test system: S. aureus Smith; experiment: MIC against standard strains (Test Example 3); settings: Staphylococcus aureus; S. aureus Smith (Test Example 3); read-out: MIC
Procedure, shortened: as §3

[40] = test system: S. epidemidis IAM1296; experiment: MIC against standard strains (Test Example 3); settings: S. epidemidis IAM1296 (Test Example 3); read-out: MIC
Procedure, shortened: as §3

[41] = test system: S. marcescens IAM1184; experiment: MIC against standard strains (Test Example 3); settings: Serratia marcescens; S. marcescens IAM1184 (Test Example 3); read-out: MIC
Procedure, shortened: as §3

SMILES: CN(C)CCn1nnnc1SCC1=C(C(=O)O)N2C(=O)[C@@H](NC(=O)Cc3csc(N)n3)[C@H]2SC1 [CTM, cefotiam, reference compound]
- MIC [1]: 0.2 µg/mL (≈ 0.38 µM)
- MIC [2]: 0.78 µg/mL (≈ 1.48 µM)
- MIC [3]: 50 µg/mL (≈ 95.1 µM)
- MIC [4]: 0.2 µg/mL (≈ 0.38 µM)
- MIC [5]: 0.2 µg/mL (≈ 0.38 µM)
- MIC [6]: 0.1 µg/mL (≈ 0.19 µM)
- MIC [7]: 0.1 µg/mL (≈ 0.19 µM)
- MIC [8]: 0.39 µg/mL (≈ 0.742 µM)
- MIC [9]: 0.39 µg/mL (≈ 0.742 µM)
- MIC [10]: 0.1 µg/mL (≈ 0.19 µM)
- MIC [11]: 0.39 µg/mL (≈ 0.742 µM)
- MIC [12]: 0.39 µg/mL (≈ 0.742 µM)
- MIC [13]: > 100 µg/mL
- MIC [14]: > 100 µg/mL
- MIC [15]: 3.13 µg/mL (≈ 5.95 µM)
- MIC [16]: > 100 µg/mL
- MIC [17]: > 100 µg/mL
- MIC [18]: 0.2 µg/mL (≈ 0.38 µM)
- MIC [19]: 0.39 µg/mL (≈ 0.742 µM)
- MIC [20]: 0.2 µg/mL (≈ 0.38 µM)
- MIC [21]: 100 µg/mL (≈ 190 µM)
- MIC [22]: 1.56 µg/mL (≈ 2.97 µM)
- MIC [23]: 0.2 µg/mL (≈ 0.38 µM)
- MIC [24]: 0.78 µg/mL (≈ 1.48 µM)
- MIC [25]: 3.13 µg/mL (≈ 5.95 µM)
- MIC [26]: 0.1 µg/mL (≈ 0.19 µM)
- MIC [27]: 0.1 µg/mL (≈ 0.19 µM)
- MIC [28]: 0.1 µg/mL (≈ 0.19 µM)
- MIC [29]: 0.05 µg/mL (≈ 0.0951 µM)
- MIC [30]: 0.39 µg/mL (≈ 0.742 µM)
- MIC [31]: 0.1 µg/mL (≈ 0.19 µM)
- MIC [32]: 0.39 µg/mL (≈ 0.742 µM)
- MIC [33]: > 100 µg/mL
- MIC [34]: 0.39 µg/mL (≈ 0.742 µM)
- MIC [35]: 0.39 µg/mL (≈ 0.742 µM)
- MIC [36]: 100 µg/mL (≈ 190 µM)
- MIC [37]: > 100 µg/mL
- MIC [38]: 0.39 µg/mL (≈ 0.742 µM)
- MIC [39]: 0.39 µg/mL (≈ 0.742 µM)
- MIC [40]: 0.2 µg/mL (≈ 0.38 µM)
- MIC [41]: 1.56 µg/mL (≈ 2.97 µM)
